Laboratory results published in patent US7049311B1, “Pyrrolbenzodiazepines” (Spirogen Limited, priority 1998, dated 2006).
“And” between values parts separate entries of the source, which are not always exact repeats. Equal entries are not always repeated.

What was measured:
[1] = system: human tumour cells cultivated in hollow fibres implanted in mice; test: NCI Hollow Fibre Assay; type: in vivo
Excerpt: The Biological testing Branch of the Developmental Therapeutics Program of the NCI has adopted a preliminary in vivo screening tool for assessing the potential anticancer activity of compounds identified by the large scale in vitro cell screen. For these assays, human tumour cells are cultivated in polyvinylidene (PVDF) hollow fibres, and a sample of each cell line is implanted into each of two physiologic compartments (intraperitoneal and subcutaneaous) in mice. Each test mouse received a total of 6 fibres (3 intraperitoneally and 3 subcutaneously) representing 3 distinct cancer cell lines. These mice are treated with potential antitumour compounds at each of 2 test doses by the intraperitoneal route using a QD×4 treatment schedule. Vehicle controls consist of 6 mice receiving the compound diluent only. The fibre cultures are collected on the day following the last day of treatment. To assess anticancer effects, the viable cell mass is determined for each of the cell lines using a formazyn dye (MTT) conversion assay. From this, the % T/C can be calculated using the average optical density of compound treated samples divided by the average optical; density of the vehicle controls. In addition, the net increase in cell mass can be determined for each sample, as a sample of fibre cultures are assessed for viable cell mass on the day of implantation into mice. Thus, the cytostatic and cytocidal capacities of the test compound can be assessed.
Generally, each compound is tested against a minimum of 12 human cancer cell lines. This represents a total of 4 experiments since each experiment contains 3 cell lines. The data are reported as % T/C for each of the 2 compound doses against each of the cell lines with separate values calculated for the intraperitoneal and subcutaneous samples.
Compounds are selected for further in vivo testing in standard subcutaneous xenograft models on the basis of several hollow fibre assay criteria. These include: (1) a % T/C of 50 or less in 10 of the 48 possible test combinations (12 cell lines×2 sites×2 Compound doses); (2) activity at a distance (intraperitoneal drug/subcutaneous culture) in a minimum of 4 of the 24 possible combinations; and/or (3) a net cell kill of 1 or more of the cell lines in either implant site. To simplify evaluation, a points system has been adopted which allows rapid evaluation of the activity of a given compound. For this, a value of 2 is assigned for each compound dose which results in a 50% or greater reduction in viable cell mass. The intraperitoneal and subcutaneous samples are scored separately so that criteria (1) and (2) can be evaluated. Compounds with a combined IP+SC score of 20, a SC score of 8 or a net cell kill of one or more cell lines are referred for xenograft testing. […] In addition to these criteria, other factors (e.g. unique structure, mechanism of action) may result in referral of a compound for xenograft testing without the compound meeting these criteria.

human CNS tumour SF-295 = test: NCI human xenograft study; type: in vivo, mice; details: 5 doses
Method: These are carried out on nucle athymic mice with a disabled immune system. The human tumour tissue to be tested is implanted in their flanks, and whilst the control mouse receives no treatment, the others are subjected to varying doses of the test compound, which is administered intraperitoneally. The results are expressed as the toxicity of the compound, the amount of tumour growth, and the inhibition of growth.
UP2001 (80) was also evaluated against the human CNS tumour SF-295. Athymic nude mice bearing SF-295 were treated at doses of 0.40, 0.27 and 0.18 mg/Kg by injection given intravenously once daily for a total of 5 doses.

calf thymus DNA = test: DNA helix melting temperature assay; type: binding
Method: The first assay, which is described in G. B. Jones, et al., Anti-Cancer Drug Des., 1990, 5, 249, which is incorporated herein by reference, determines the effect of the test compound on the helix melting temperature of DNA. This assay is designed to give an indication of the strength and extent of cross-linking of the DNA strands by the test compound (i.e. a measure of the stabilisation of the DNA upon ligand binding).
The melting temperature was determined for a 1:5 molar ratio of [ligand] [DNA], where the calf thymus DNA concentration is […] in aqueous sodium phosphate buffer (10 mM sodium phosphate+1 mM EDTA, pH 7.00±0.01). For calf thymus DNA at pH 7.00±0.01, the melting temperature is 67.83±0.06° C. (mean value from 30 separate determinations).

A2780cisR = test: Ovarian carcinoma cytotoxicity assay; type: cell-based, human; details: Homo sapiens, A2780cisR, 96 h, read-out: IC50 A2780cisR
Method in brief: (§1)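 Cells attached overnight, then read 96 hours later by sulphorhodamine B staining of TCA-fixed cells, with absorbance at 540 nm. IC50 taken from concentration versus % absorbance relative to untreated wells; cisR lines are cisplatin-resistant.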

A2780 = test: Ovarian carcinoma cytotoxicity assay; type: cell-based, human; details: Homo sapiens, A2780, 96 h, read-out: IC50 A2780
Method in brief: as §1

C=C1C[C@H]2C=Nc3cc(OCCCOc4cc5c(cc4OC)C(=O)N4CC(=C)C[C@H]4C=N5)c(OC)cc3C(=O)N2C1 [UP2001 (80)]
Total score ([1]; combined IP+SC score): 54
IP score ([1]; intraperitoneal fibres, 2 points per dose giving 50% or greater reduction in viable cell mass): 40
SC score ([1]; subcutaneous fibres, 2 points per dose giving 50% or greater reduction in viable cell mass): 14
% T/C Low (human CNS tumour SF-295; 0.18 mg/Kg intravenously once daily): 0%
Toxicity Low (human CNS tumour SF-295; 0.18 mg/Kg intravenously once daily, mice dying): two and 2/6
Tumour Free Low (human CNS tumour SF-295; 0.18 mg/Kg intravenously once daily, surviving mice tumour free on day 27): 3 out of 4 and 3/4
% T/C Med (human CNS tumour SF-295; 0.27 mg/Kg intravenously once daily): 0%
Toxicity Med (human CNS tumour SF-295; 0.27 mg/Kg intravenously once daily, mice dying): 1 and 1/6
Tumour Free Med (human CNS tumour SF-295; 0.27 mg/Kg intravenously once daily, surviving mice tumour free on day 27): all the surviving mice were tumour free and 5/5
% T/C High (human CNS tumour SF-295; 0.40 mg/Kg intravenously once daily): 0%
Toxicity High (human CNS tumour SF-295; 0.40 mg/Kg intravenously once daily, mice dying): 2 and 2/6
Tumour Free High (human CNS tumour SF-295; 0.40 mg/Kg intravenously once daily, surviving mice tumour free on day 27): all the surviving mice were tumour free and 4/4
Induced ΔTa after incubation at 37° C. for 0 h (calf thymus DNA; [PBD]:[DNA] ratio of 1:5, calf thymus DNA, pH 7.00, 0 h): 25.7 °C
Induced ΔTa after incubation at 37° C. for 4 h (calf thymus DNA; [PBD]:[DNA] ratio of 1:5, calf thymus DNA, pH 7.00, 4 h): 31.9 °C
Induced ΔTa after incubation at 37° C. for 18 h (calf thymus DNA; [PBD]:[DNA] ratio of 1:5, calf thymus DNA, pH 7.00, 18 h): 33.6 °C
share of stabilising effect provided without prior incubation (calf thymus DNA; calf thymus DNA melting): 60-80%
fold more effective than DSB-120 (comparative ΔTm curves) (calf thymus DNA; on a concentration basis): ≥ 10 fold
IC50 (A2780cisR): 0.024 nM
IC50 (A2780): 0.023 nM
